Legend:
Conditions in all cases: 500 mM ethanol, 0.5 mM acetyl-CoA, pH 7.4, 30 °C
[1] = biological target: T1, Atf-K.l (Kluyveromyces lactis, UniProt Q6CJX7); test: headspace GC of ethyl acetate, whole cell lysate; format: biochemical
T1 construct: gene KLLA0_F15202g; C-terminal GFP fusion (reporter); expressed in S. cerevisiae (pYKLG) and E. coli BL21(DE3) (pKLG)
T1 sequence (Q6CJX7 1-517): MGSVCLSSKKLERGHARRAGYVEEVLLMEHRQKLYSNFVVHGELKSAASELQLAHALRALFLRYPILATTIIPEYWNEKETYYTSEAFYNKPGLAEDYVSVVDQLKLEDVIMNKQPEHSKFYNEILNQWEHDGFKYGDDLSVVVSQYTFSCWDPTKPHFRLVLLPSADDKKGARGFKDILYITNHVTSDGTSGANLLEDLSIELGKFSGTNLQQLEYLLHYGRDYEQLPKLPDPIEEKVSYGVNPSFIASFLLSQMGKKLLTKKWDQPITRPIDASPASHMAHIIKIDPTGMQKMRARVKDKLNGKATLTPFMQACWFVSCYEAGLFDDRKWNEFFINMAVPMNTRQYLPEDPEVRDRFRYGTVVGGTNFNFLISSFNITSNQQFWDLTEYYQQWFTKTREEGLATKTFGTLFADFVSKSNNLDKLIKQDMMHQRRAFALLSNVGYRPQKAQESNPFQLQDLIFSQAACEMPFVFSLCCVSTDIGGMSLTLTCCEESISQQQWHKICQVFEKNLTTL

[2] = biological target: T2, Atf-S.p (Saccharomyces pastorianus, UniProt Q12678); test: headspace GC of ethyl acetate, whole cell lysate; format: biochemical
T2 construct: gene ATF1_2; C-terminal GFP fusion (reporter); expressed in S. cerevisiae (pYSPG) and E. coli BL21(DE3) (pSPG)
T2 sequence (Q12678 1-545): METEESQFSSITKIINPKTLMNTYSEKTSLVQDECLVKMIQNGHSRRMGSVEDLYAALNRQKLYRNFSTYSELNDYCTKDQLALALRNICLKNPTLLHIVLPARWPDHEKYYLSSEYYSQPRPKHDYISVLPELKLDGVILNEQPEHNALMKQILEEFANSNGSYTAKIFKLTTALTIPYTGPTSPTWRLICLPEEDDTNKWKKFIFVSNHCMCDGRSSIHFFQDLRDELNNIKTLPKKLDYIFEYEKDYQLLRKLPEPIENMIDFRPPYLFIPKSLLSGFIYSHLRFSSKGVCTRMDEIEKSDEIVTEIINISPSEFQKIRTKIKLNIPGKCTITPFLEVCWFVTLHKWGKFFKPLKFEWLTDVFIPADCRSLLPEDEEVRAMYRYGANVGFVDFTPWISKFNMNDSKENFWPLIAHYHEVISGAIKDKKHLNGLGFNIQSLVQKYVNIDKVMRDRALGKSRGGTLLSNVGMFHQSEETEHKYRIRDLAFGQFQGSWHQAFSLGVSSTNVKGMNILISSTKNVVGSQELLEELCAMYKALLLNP

[3] = biological target: T3, Atf-P.a (Hansenula anomala, UniProt H6UWN0); test: headspace GC of ethyl acetate, whole cell lysate; format: biochemical
T3 construct: gene WAN_10494; C-terminal GFP fusion (reporter); expressed in S. cerevisiae (pYPAG) and E. coli BL21(DE3) (pPAG)
T3 sequence (H6UWN0 1-427): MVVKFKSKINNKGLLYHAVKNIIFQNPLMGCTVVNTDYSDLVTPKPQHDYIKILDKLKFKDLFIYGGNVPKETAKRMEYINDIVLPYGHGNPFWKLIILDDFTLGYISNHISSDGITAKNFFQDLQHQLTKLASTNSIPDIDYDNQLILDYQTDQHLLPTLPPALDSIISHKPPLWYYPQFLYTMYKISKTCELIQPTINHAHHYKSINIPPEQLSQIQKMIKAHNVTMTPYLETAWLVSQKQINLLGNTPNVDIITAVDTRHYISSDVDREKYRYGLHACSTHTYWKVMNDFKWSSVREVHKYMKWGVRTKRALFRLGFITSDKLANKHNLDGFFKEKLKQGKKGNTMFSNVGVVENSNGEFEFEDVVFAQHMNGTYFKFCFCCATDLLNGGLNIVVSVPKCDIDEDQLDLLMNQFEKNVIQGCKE

[4] = biological target: T4, Atf-S.l (Solanum lycopersicum, UniProt Q6QLX4); test: headspace GC of ethyl acetate, whole cell lysate; format: biochemical
T4 construct: gene AAT1; C-terminal GFP fusion (reporter); expressed in S. cerevisiae (pYSLG) and E. coli BL21(DE3) (pSLG); N-terminus from primer MANILPI
T4 sequence (Q6QLX4 1-442): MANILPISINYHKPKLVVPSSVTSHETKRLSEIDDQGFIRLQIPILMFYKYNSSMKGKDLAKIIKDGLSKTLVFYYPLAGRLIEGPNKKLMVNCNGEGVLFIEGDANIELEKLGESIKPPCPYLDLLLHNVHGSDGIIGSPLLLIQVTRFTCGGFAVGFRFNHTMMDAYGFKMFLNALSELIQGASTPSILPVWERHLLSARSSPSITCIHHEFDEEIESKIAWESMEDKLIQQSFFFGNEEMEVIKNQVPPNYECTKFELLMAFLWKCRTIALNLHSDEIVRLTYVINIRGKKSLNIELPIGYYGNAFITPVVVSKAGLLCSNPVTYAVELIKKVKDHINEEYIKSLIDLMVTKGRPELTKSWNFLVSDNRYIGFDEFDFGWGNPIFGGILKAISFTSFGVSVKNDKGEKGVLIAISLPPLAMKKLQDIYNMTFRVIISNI

[5] = biological target: T5, Atf1-S.c (Saccharomyces cerevisiae, UniProt P40353)
T5 sequence (P40353 1-525): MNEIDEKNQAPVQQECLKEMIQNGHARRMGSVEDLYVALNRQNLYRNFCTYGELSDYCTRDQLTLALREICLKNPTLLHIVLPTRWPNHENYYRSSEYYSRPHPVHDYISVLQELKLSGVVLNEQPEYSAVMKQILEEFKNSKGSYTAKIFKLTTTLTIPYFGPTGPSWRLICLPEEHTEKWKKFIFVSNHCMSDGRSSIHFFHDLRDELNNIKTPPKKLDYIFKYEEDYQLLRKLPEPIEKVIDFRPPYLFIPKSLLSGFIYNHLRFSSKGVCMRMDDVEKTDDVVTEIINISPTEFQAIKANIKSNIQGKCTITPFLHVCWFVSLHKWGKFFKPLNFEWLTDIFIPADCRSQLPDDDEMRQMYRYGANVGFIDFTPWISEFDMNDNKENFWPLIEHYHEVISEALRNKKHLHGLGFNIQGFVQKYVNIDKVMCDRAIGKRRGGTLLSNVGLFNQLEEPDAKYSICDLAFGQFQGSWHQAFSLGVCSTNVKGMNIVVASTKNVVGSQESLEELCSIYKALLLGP

[6] = biological target: T6, Atf2-S.c (Saccharomyces cerevisiae, UniProt P53296)
T6 sequence (P53296 1-535): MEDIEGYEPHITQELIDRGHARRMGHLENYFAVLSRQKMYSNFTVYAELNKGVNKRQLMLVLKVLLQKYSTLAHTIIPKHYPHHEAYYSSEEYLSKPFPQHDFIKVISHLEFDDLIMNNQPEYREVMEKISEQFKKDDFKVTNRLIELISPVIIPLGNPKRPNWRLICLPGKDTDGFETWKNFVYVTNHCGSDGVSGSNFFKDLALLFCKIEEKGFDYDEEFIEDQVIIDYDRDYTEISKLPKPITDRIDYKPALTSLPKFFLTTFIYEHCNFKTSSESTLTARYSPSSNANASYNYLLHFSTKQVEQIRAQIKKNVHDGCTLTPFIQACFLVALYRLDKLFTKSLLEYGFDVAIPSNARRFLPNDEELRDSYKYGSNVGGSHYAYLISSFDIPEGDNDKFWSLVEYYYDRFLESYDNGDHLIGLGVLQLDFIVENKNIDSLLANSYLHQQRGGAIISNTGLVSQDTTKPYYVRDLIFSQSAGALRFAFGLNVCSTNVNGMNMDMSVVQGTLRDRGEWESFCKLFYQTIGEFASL

`CC(=O)SCCNC(=O)CCNC(=O)[C@H](O)C(C)(C)COP(=O)(O)OP(=O)(O)OC[C@H]1O[C@@H](n2cnc3c(N)ncnc32)[C@H](O)[C@@H]1OP(=O)(O)O` [acetyl-CoA] was tested, and the “headspace GC of ethyl acetate, whole cell lysate” value (from here on “headspace GC of ethyl acetate”) [1] was “AATase activity was measured using ethanol and acetyl-CoA as substrates”, the “headspace GC of ethyl acetate” value [2] was “AATase activity was measured using ethanol and acetyl-CoA as substrates” and the “headspace GC of ethyl acetate” value [3] was “AATase activity was measured using ethanol and acetyl-CoA as substrates”. The “headspace GC of ethyl acetate” value [4] was “AATase activity was measured using ethanol and acetyl-CoA as substrates”, the “headspace GC of ethyl acetate” value [5] was “AATase activity was measured using ethanol and acetyl-CoA as substrates” and the “headspace GC of ethyl acetate” value [6] was “AATase activity was measured using ethanol and acetyl-CoA as substrates”.

— article PMC4367896, “Microbial host selection affects intracellular localization and activity of alcohol-O-acetyltransferase” (Microbial Cell Factories, 2015)
